Results as given in publication PMC2818674 (Bioorganic & medicinal chemistry, 2009).
pIC50: −log10 of the molar value.

Key:
Akt = test: Selectivity profile: Akt; type: biochemical; details: for pIC50: read-out: Akt, IC50, selectivity profile
Plasma stability assay = type: in vitro ADME, rat; details: for plasma stability: after 1 h of incubation in rat plasma; for remaining at 1 h, 1 μM: rat, fresh rat plasma
PAMPA permeability assay = type: in vitro ADME; details: pH 7.4

| Compound | pIC50 (Akt) | plasma stability (Plasma stability assay) | remaining at 1 h, 1 μM (Plasma stability assay) | Cell permeability, PAMPA % Flux (PAMPA permeability assay) | activity against the kinase Akt (Akt) |
| --- | --- | --- | --- | --- | --- |
| CCC(C)Nc1nnc(Sc2ncc([N+](=O)[O-])s2)s1 (stereo not drawn) [BI-98A10, N-sec-butyl-5-(5-nitrothiazol-2-ylthio)-1,3,4-thiadiazol-2-amine] | < 4.00 |  |  |  |  |
| COc1ccc(CCNc2nnc(Sc3ncc([N+](=O)[O-])s3)s2)cc1OC [BI-90H10, N-(3,4-dimethoxyphenethyl)-5-(5-nitrothiazol-2-ylthio)-1,3,4-thiadiazol-2-amine] | < 4.00 | degraded rapidly | 0% | 5.5% |  |
| O=[N+]([O-])c1cnc(Sc2nnc(O)n2-c2ccc3c(c2)OCCO3)s1 [BI-78D3, reference compound] |  |  | 42% | 30% |  |
| CCCNc1nnc(Sc2ncc([N+](=O)[O-])s2)s1 [BI-90H6, 5-(5-nitrothiazol-2-ylthio)-N-propyl-1,3,4-thiadiazol-2-amine] | < 4.00 | degraded rapidly | 35% | 49.8% |  |
| COCCNc1nnc(Sc2ncc([N+](=O)[O-])s2)s1 [BI-90H9, N-(2-methoxyethyl)-5-(5-nitrothiazol-2-ylthio)-1,3,4-thiadiazol-2-amine] | < 4.00 |  | 68% | 76.3% | practically inactive |
